ChEMBL document CHEMBL1201862, “PubChem BioAssay data set” (2004)
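96-well plates; 48 h exposure; 5 concentrations. Endpoints by linear interpolation between flanking doses. Not reached: highest tested concentration assigned. The concentration for 50% growth inhibition is given as GI50.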 Active and inactive are the calls of the source. Rule as the data show it: active = GI50 up to about 1.1 µM and inactive = higher.

What was measured:
Test in all cases: inhibition of tumour cell growth, NCI panel, 48 h
[1] = tested on: 786-0
[2] = tested on: A498
[3] = tested on: A549
[4] = tested on: ACHN
[5] = tested on: BT-549
[6] = tested on: CAKI-1
[7] = tested on: CCRF-CEM
[8] = tested on: COLO 205
[9] = tested on: DU-145
[10] = tested on: EKVX
[11] = tested on: HCC 2998
[12] = tested on: HCT-116
[13] = tested on: HCT-15
[14] = tested on: HOP-62
[15] = tested on: HOP-92
[16] = tested on: HT-29
[17] = tested on: Hs-578T
[18] = tested on: IGROV-1
[19] = tested on: K562
[20] = tested on: KM12
[21] = tested on: LOX IMVI
[22] = tested on: M14
[23] = tested on: MDA-MB-231
[24] = tested on: MDA-MB-435
[25] = tested on: MOLT-4
[26] = tested on: Malme-3M
[27] = tested on: NCI-H226
[28] = tested on: NCI-H23
[29] = tested on: NCI-H460
[30] = tested on: NCI-H522
[31] = tested on: NCI/ADR-RES
[32] = tested on: OVCAR-3
[33] = tested on: OVCAR-4
[34] = tested on: OVCAR-5
[35] = tested on: OVCAR-8
[36] = tested on: PC-3
[37] = tested on: RPMI-8226
[38] = tested on: RXF 393
[39] = tested on: SF-268
[40] = tested on: SF-295
[41] = tested on: SK-MEL-28
[42] = tested on: SK-MEL-2
[43] = tested on: SK-MEL-5
[44] = tested on: SK-OV-3
[45] = tested on: SNB-19
[46] = tested on: SNB-75
[47] = tested on: SW-620
[48] = tested on: T47D
[49] = tested on: TK-10
[50] = tested on: U-251
[51] = tested on: UACC-257
[52] = tested on: UACC-62
[53] = tested on: UO-31
[54] = tested on: HL-60
[55] = tested on: MCF7
[56] = tested on: MDA-N
[57] = tested on: SF-539
[58] = tested on: SN12C
[59] = tested on: SR

CCOP(=O)(OCC)C(Nc1ccc(C(=O)O)cc1)c1ccc(C(Nc2ccc(C(=O)O)cc2)P(=O)(OCC)OCC)cc1 (stereo not drawn)
GI50 [1]: > 100 µM (inactive) | GI50 [2]: > 100 µM (inactive) | GI50 [3]: > 100 µM (inactive) | GI50 [4]: > 100 µM (inactive) | GI50 [5]: > 100 µM (inactive) | GI50 [6]: > 100 µM (inactive) | GI50 [7]: > 100 µM (inactive) | GI50 [8]: > 100 µM (inactive) | GI50 [9]: > 100 µM (inactive) | GI50 [10]: > 100 µM (inactive) | GI50 [11]: > 100 µM (inactive) | GI50 [12]: > 100 µM (inactive) | GI50 [13]: > 100 µM | GI50 [14]: > 100 µM (inactive) | GI50 [15]: > 100 µM (inactive) | GI50 [16]: > 100 µM (inactive) | GI50 [17]: > 100 µM (inactive) | GI50 [18]: > 100 µM (inactive) | GI50 [19]: > 100 µM (inactive) | GI50 [20]: > 100 µM (inactive) | GI50 [21]: > 100 µM (inactive) | GI50 [22]: > 100 µM (inactive) | GI50 [23]: > 100 µM (inactive) | GI50 [24]: > 100 µM (inactive) | GI50 [25]: > 100 µM (inactive) | GI50 [26]: > 100 µM (inactive) | GI50 [27]: > 100 µM (inactive) | GI50 [28]: > 100 µM (inactive) | GI50 [29]: > 100 µM (inactive) | GI50 [30]: > 100 µM (inactive) | GI50 [31]: > 100 µM (inactive) | GI50 [32]: > 100 µM (inactive) | GI50 [33]: > 100 µM (inactive) | GI50 [34]: > 100 µM (inactive) | GI50 [35]: > 100 µM (inactive) | GI50 [36]: > 100 µM (inactive) | GI50 [37]: > 100 µM (inactive) | GI50 [38]: > 100 µM (inactive) | GI50 [39]: > 100 µM (inactive) | GI50 [40]: > 100 µM (inactive) | GI50 [41]: > 100 µM (inactive) | GI50 [42]: > 100 µM (inactive) | GI50 [43]: > 100 µM (inactive) | GI50 [44]: > 100 µM (inactive) | GI50 [45]: > 100 µM (inactive) | GI50 [46]: > 100 µM (inactive) | GI50 [47]: > 100 µM (inactive) | GI50 [48]: > 100 µM (inactive) | GI50 [49]: > 100 µM (inactive) | GI50 [50]: > 100 µM (inactive) | GI50 [51]: > 100 µM (inactive) | GI50 [52]: > 100 µM (inactive) | GI50 [53]: > 100 µM (inactive)

CCOC(=O)C(NC(C)=O)(Nc1ccc(S(N)(=O)=O)cc1)C(F)(F)F (stereo not drawn)
GI50 [1]: > 100 µM (inactive) | GI50 [2]: > 100 µM (inactive) | GI50 [3]: > 100 µM (inactive) | GI50 [4]: > 100 µM (inactive) | GI50 [6]: > 100 µM (inactive) | GI50 [7]: > 100 µM (inactive) | GI50 [8]: > 100 µM (inactive) | GI50 [9]: > 100 µM (inactive) | GI50 [10]: > 100 µM (inactive) | GI50 [11]: > 100 µM (inactive) | GI50 [12]: > 100 µM (inactive) | GI50 [13]: > 100 µM | GI50 [54]: > 100 µM (inactive) | GI50 [14]: > 100 µM (inactive) | GI50 [15]: > 100 µM (inactive) | GI50 [16]: > 100 µM (inactive) | GI50 [17]: > 100 µM (inactive) | GI50 [18]: > 100 µM (inactive) | GI50 [19]: > 100 µM (inactive) | GI50 [20]: 3.58 µM (inactive) | GI50 [21]: > 100 µM (inactive) | GI50 [22]: > 100 µM (inactive) | GI50 [55]: > 100 µM (inactive) | GI50 [23]: > 100 µM (inactive) | GI50 [24]: > 100 µM (inactive) | GI50 [56]: > 100 µM (inactive) | GI50 [25]: > 100 µM (inactive) | GI50 [26]: > 100 µM (inactive) | GI50 [27]: > 100 µM (inactive) | GI50 [28]: > 100 µM (inactive) | GI50 [29]: > 100 µM (inactive) | GI50 [30]: > 100 µM (inactive) | GI50 [31]: > 100 µM (inactive) | GI50 [32]: > 100 µM (inactive) | GI50 [33]: > 100 µM (inactive) | GI50 [34]: > 100 µM (inactive) | GI50 [35]: > 100 µM (inactive) | GI50 [36]: > 100 µM (inactive) | GI50 [37]: > 100 µM (inactive) | GI50 [38]: > 100 µM (inactive) | GI50 [39]: > 100 µM (inactive) | GI50 [40]: > 100 µM (inactive) | GI50 [57]: > 100 µM (inactive) | GI50 [41]: > 100 µM (inactive) | GI50 [42]: > 100 µM (inactive) | GI50 [43]: > 100 µM (inactive) | GI50 [44]: > 100 µM (inactive) | GI50 [58]: > 100 µM (inactive) | GI50 [45]: > 100 µM (inactive) | GI50 [46]: > 100 µM (inactive) | GI50 [59]: > 100 µM (inactive) | GI50 [47]: > 100 µM (inactive) | GI50 [48]: > 100 µM (inactive) | GI50 [49]: > 100 µM (inactive) | GI50 [50]: > 100 µM (inactive) | GI50 [51]: > 100 µM (inactive) | GI50 [53]: > 100 µM (inactive)

O=S(=O)(Oc1ccc2ccccc2c1-c1c(OS(=O)(=O)C(F)(F)F)ccc2ccccc12)C(F)(F)F
GI50 [1]: > 100 µM (inactive) | GI50 [2]: 26.4 µM (inactive) | GI50 [3]: 35 µM (inactive) | GI50 [4]: 2.75 µM (inactive) | GI50 [5]: > 100 µM (inactive) | GI50 [6]: > 100 µM (inactive) | GI50 [7]: 29.3 µM (inactive) | GI50 [8]: > 100 µM (inactive) | GI50 [10]: 66.4 µM (inactive) | GI50 [11]: 31 µM (inactive) | GI50 [12]: 9.64 µM (inactive) | GI50 [13]: 32.4 µM | GI50 [54]: 11.3 µM (inactive) | GI50 [14]: > 100 µM (inactive) | GI50 [15]: 12.5 µM (inactive) | GI50 [16]: 41.9 µM (inactive) | GI50 [17]: > 100 µM (inactive) | GI50 [18]: > 100 µM (inactive) | GI50 [19]: 16.9 µM (inactive) | GI50 [20]: > 100 µM (inactive) | GI50 [22]: 91.8 µM (inactive) | GI50 [55]: > 100 µM (inactive) | GI50 [23]: 42.7 µM (inactive) | GI50 [24]: 45.5 µM (inactive) | GI50 [25]: 12.8 µM (inactive) | GI50 [26]: > 100 µM (inactive) | GI50 [27]: 79.1 µM (inactive) | GI50 [28]: 75.2 µM (inactive) | GI50 [29]: 20 µM (inactive) | GI50 [30]: 37.7 µM (inactive) | GI50 [31]: 84.5 µM (inactive) | GI50 [32]: 41.8 µM (inactive) | GI50 [33]: 4.2 µM (inactive) | GI50 [34]: > 100 µM (inactive) | GI50 [35]: > 100 µM (inactive) | GI50 [36]: 12.7 µM (inactive) | GI50 [37]: 27.5 µM (inactive) | GI50 [38]: 43.4 µM (inactive) | GI50 [39]: > 100 µM (inactive) | GI50 [40]: > 100 µM (inactive) | GI50 [57]: > 100 µM (inactive) | GI50 [41]: > 100 µM (inactive) | GI50 [42]: > 100 µM (inactive) | GI50 [43]: 7.01 µM (inactive) | GI50 [44]: > 100 µM (inactive) | GI50 [45]: > 100 µM (inactive) | GI50 [46]: > 100 µM (inactive) | GI50 [59]: 7.67 µM (inactive) | GI50 [47]: > 100 µM (inactive) | GI50 [50]: 32.1 µM (inactive) | GI50 [51]: 1.32 µM (inactive) | GI50 [52]: > 100 µM (inactive) | GI50 [53]: 37.8 µM (inactive)
